Measured values from US20020115689A1, “Combination therapy for treating neurodegenerative disease” (priority 1999, published 2002).

What follows are compounds tested on COX-1 and COX-2 (assay: human whole blood assay (Chan, et al., JPET 290:551-560, 1999) for COX-1 and COX-2 inhibition). Details: approximate COX-2 selectivity ratio = IC50 for inhibition of COX-1 divided by IC50 for inhibition of COX-2, human whole blood assay.
Format: cell-based
Description: The ability of a compound to inhibit COX-1 and/or COX-2 may be characterized by reference to a wide variety of assays. […] Moreover, for purposes of this patent application a COX-2 selectivity ratio is defined by the IC50 for the inhibition of COX-1 divided by the IC50 for the inhibition of COX-2 as measured by the Chan, et al., human whole blood assay.

Compared with `Cc1ccc(-c2cc(C(F)(F)F)nn2-c2ccc(S(N)(=O)=O)cc2)cc1` [Celecoxib], `Cc1ccc(-c2ncc(Cl)cc2-c2ccc(S(C)(=O)=O)cc2)cn1` [Compound 13, 5-chloro-3-(4-(methylsulfonyl)phenyl)-2-(2-methyl-5-pyridinyl)pyridine] is higher in “COX-1/COX-2 ratio of the IC50” value: 6.5 for the first, 80 for the second.

Compared with `COc1ccc2c(c1)c(CC(=O)O)c(C)n2C(=O)c1ccc(Cl)cc1` [Indomethacin], `CS(=O)(=O)c1ccc(C2=C(c3ccccc3)C(=O)OC2)cc1` [Rofecoxib, 3-phenyl-4-(4-(methylsulfonyl)phenyl)-2-(5H)-furanone] is higher in “COX-1/COX-2 ratio of the IC50” value: 0.4 for the first, 35 for the second.

In the case of `Cc1cnc(NC(=O)C2=C(O)c3ccccc3S(=O)(=O)N2C)s1` [Meloxicam], the “COX-1/COX-2 ratio of the IC50” value is reported as 2.

`CCC(=O)NS(=O)(=O)c1ccc(-c2c(-c3ccccc3)noc2C)cc1` [Pericoxib, N-[[4-(5-methyl-3-phenylisoxazol-4-yl)phenyl]sulfonyl]propanamide] was tested, and the “COX-1/COX-2 ratio of the IC50” value was over 100.
